Data: PubChem BioAssay (NCI)
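Exposure lasted 48 hours, with cells grown in 96-well plates and compounds tested at five concentrations. GI50 marks 50% less growth. At the TGI there is no net growth.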

Tests used:
Assay in all cases: growth of human tumour cells (NCI), 48 h
MALME-3M melanoma = system: MALME-3M melanoma
MOLT-4 leukemia = system: MOLT-4 leukemia
NCI-H23 lung = system: NCI-H23 lung
SR leukemia = system: SR leukemia
UACC-257 melanoma = system: UACC-257 melanoma
UO-31 renal = system: UO-31 renal
MCF7 breast = system: MCF7 breast
MDA-MB-231 breast = system: MDA-MB-231 breast
SF-268 CNS = system: SF-268 CNS
PC-3 prostate = system: PC-3 prostate

SMILES	TGI (MALME-3M melanoma) [µM]	TGI (MOLT-4 leukemia) [µM]	TGI (NCI-H23 lung) [µM]	TGI (SR leukemia) [µM]	TGI (UACC-257 melanoma) [µM]	TGI (UO-31 renal) [µM]	TGI (MCF7 breast) [µM]	TGI (MDA-MB-231 breast) [µM]	TGI (SF-268 CNS) [µM]	TGI (PC-3 prostate) [µM]	GI50 (MALME-3M melanoma) [µM]	GI50 (MCF7 breast) [µM]	GI50 (MOLT-4 leukemia) [µM]	GI50 (NCI-H23 lung) [µM]	GI50 (SF-268 CNS) [µM]	GI50 (UACC-257 melanoma) [µM]	GI50 (UO-31 renal) [µM]	GI50 (MDA-MB-231 breast) [µM]	GI50 (PC-3 prostate) [µM]
CC1OC=CC(=O)C1O (configuration not stated)	> 100	> 100	> 100	> 100	> 100	> 100													
COc1ccc(N2C(=O)/C(=C/c3ccc(N(CCC#N)CCC#N)cc3)N=C2c2ccccc2)c(OC)c1	> 100	> 100	> 100	60.3	> 100	> 100	> 100	> 100	> 100										
O=c1/c(=C/c2ccc(-c3ccc(Cl)cc3Cl)o2)sc2n1[C@@H](c1ccc3c(c1)OCO3)C=C(c1cc(F)c(Cl)cc1Cl)N=2	> 100	> 100	> 100		71.1	95.1	> 100	57.2	> 100	> 100									
CC(C)CC(NC(=O)C(COc1ccc([N+](=O)[O-])cc1)Cc1ccccc1)C(=O)Nc1ccccc1 (configuration not stated)	18	> 100	28.7	> 100	> 100	24.5	> 100	80.3		> 100									
C=C1C(=O)O[C@H]2C3C(=C(C)CC[C@@H]12)C(=O)[C@@H]1OC31C (some centres not stated)	4.66	3.27	6.4		5.98	11.1	11.2	8.08	12.6	7.1									
C=C1CC(OC)(C(O)C(=O)N[C@H]2OCO[C@H]3C2O[C@H](C[C@H](O)COC)C(C)(C)C3OC)O[C@H](C)[C@@H]1C (some centres not stated)		> 0.00772	> 0.00772		> 0.00772	> 0.00772	> 0.00772		> 0.00772										
COc1cccc2c1[C@]1(O)C(O)CCCC21 (some centres not stated)	> 100	> 100	> 100		> 100	> 100			> 100										
Cc1ccc2c(=O)c(C(=O)N(CCO)CCO)c[nH]c2n1	> 100	> 100	> 100		> 100	> 100	> 100	> 100	> 100	> 100									
CC1(C)N=C(N)N=C(N)N1c1ccc(OCCCOc2ccccc2)c(Cl)c1	14.5	16.8	10.7		15.1	> 23.8	14.8		13.5										
CCOC(=O)CCC(C(=O)OCC)n1nnc2cc(Nc3c(C)[n+]([O-])c4ccc(Cl)cc4[n+]3[O-])ccc21 (configuration not stated)	> 100	> 100	> 100	> 100	> 100	> 100	93		> 100	> 100									
CCOC(=O)N1C(=S)C(C(=O)OC)(C(=O)OC)N=C1C		> 100	> 100	> 100	> 100	> 100	> 100			> 100									
COC(=O)[C@@H]1O[C@]12[C@@H](CO[Si](C)(C)C(C)(C)C)O[C@@H](n1cc(C)c(=O)[nH]c1=O)[C@@H]2O[Si](C)(C)C(C)(C)C	43.4	7.42	40.5		75.2			54.8	38	55.7									
NC1CCCCC1N.O=S(=O)([O-])CCCN1CCN(CCO)CC1.O=S(=O)([O-])CCCN1CCN(CCO)CC1.[Pt+4]	28.3	20.6	> 100		24	> 100	> 100		> 78		3.08	3.26	0.587	7.36	3.72	5.77	13.5		
COC(=O)C(C(=O)OC)C1CC(=O)c2c(Br)sc(Br)c21 (configuration not stated)	40	18.7	25.4	34.6	76.8	29.5	73.2		52.8	29									
S=C(Nc1ccc2c(c1)Cc1ccccc1-2)Nc1ccc2c(c1)Cc1ccccc1-2	> 100	39.5	> 100		> 100	> 100	> 100	> 100	> 100	> 100									
O=c1oc2ccccc2c(O)c1Cc1cccc(Cc2c(O)c3ccccc3oc2=O)c1	> 100	> 100	> 100		> 100	> 100	> 100	> 100	> 100	> 100									
Cn1c(=O)c2[nH]c(CCC(=O)O)nc2n(C)c1=O	> 100		> 100	> 100	> 100	> 100	> 100	> 100	> 100	> 100									
CC(=O)Nc1ccc(/C=C(\NC(=O)c2ccccc2)C(=O)NNS(=O)(=O)c2ccc(C)cc2)cc1	> 100	> 100	> 100	37.8	> 100	> 100			> 100										
COC(=O)C1[C@H](C(=O)OC)C1(Br)CBr (some centres not stated)		> 100	> 100	> 100	> 100	> 100	> 100	> 100	> 100	> 100									
c1cc2ccc1CNCCN1CCNCc3ccc(cc3)Oc3ccc(cc3)CNCCN(CCNCc3ccc(cc3)O2)CCNCc2ccc(cc2)Oc2ccc(cc2)CNCC1	3.13				3.4	26.4	2.1	1.75		1.24	1.66	0.581				1.8	11.3	0.521	0.358
CC1(C)CC(=O)C(=CN2C(=O)CNC2=S)C(=O)C1		> 100	> 100		> 100	> 100	> 100	> 100	> 100	> 100									
O=S(=O)(/N=C1/SC(=Nc2ccccc2)N(c2ccccc2)/C1=N/S(=O)(=O)c1ccccc1)c1ccccc1	68.6	62.2	34.5	50.6	43.4	39.9	52.7	35.6											
